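Values below derive from 48-hour exposures of cells grown in 96-well plates, with endpoints linearly interpolated between the two concentrations bracketing the appropriate inhibition level. At the GI50, growth is halved.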 Activity calls are given as the source filed them. No stated cut-off is given here; in the data, active = GI50 up to about 1.1 µM and inactive = higher.
Columns and labels:
Experiment in all cases: inhibition of tumour cell growth, NCI panel, 48 h
CCRF-CEM = test system: CCRF-CEM
HCC 2998 = test system: HCC 2998
HCT-15 = test system: HCT-15
HOP-92 = test system: HOP-92
M19-MEL = test system: M19-MEL
MOLT-4 = test system: MOLT-4
NCI-H460 = test system: NCI-H460
NCI-H522 = test system: NCI-H522
OVCAR-5 = test system: OVCAR-5
RXF 393 = test system: RXF 393
SF-268 = test system: SF-268
SN12C = test system: SN12C
TK-10 = test system: TK-10
UACC-257 = test system: UACC-257
LOX IMVI = test system: LOX IMVI
RPMI-8226 = test system: RPMI-8226
DU-145 = test system: DU-145
Hs-578T = test system: Hs-578T
MDA-MB-231 = test system: MDA-MB-231
PC-3 = test system: PC-3

SMILES	GI50 (CCRF-CEM)	GI50 (HCC 2998)	GI50 (HCT-15) [µM]	GI50 (HOP-92)	GI50 (M19-MEL)	GI50 (MOLT-4)	GI50 (NCI-H460)	GI50 (NCI-H522)	GI50 (OVCAR-5)	GI50 (RXF 393)	GI50 (SF-268)	GI50 (SN12C)	GI50 (TK-10)	GI50 (UACC-257)	GI50 (LOX IMVI)	GI50 (RPMI-8226)	GI50 (DU-145)	GI50 (Hs-578T)	GI50 (MDA-MB-231)	GI50 (PC-3)
COC(=O)/C(=N\NC(=O)c1ccccc1O)C(C#N)c1ccc(Cl)cc1 (centres undefined)	36.8 µM (inactive)	30.3 µM (inactive)	33	89.7 µM (inactive)	75.9 µM (inactive)	31.4 µM (inactive)	39 µM (inactive)	25.2 µM (inactive)	34.9 µM (inactive)	2.04 µM (inactive)	13.2 µM (inactive)	45.5 µM (inactive)	> 100 µM (inactive)	31.5 µM (inactive)	–	–	–	–	–	–
COc1ccccc1-c1cc(=O)c2cc(C)c(C)c(C(=O)O)c2o1	> 100 µM (inactive)	> 100 µM (inactive)	> 100	> 100 µM (inactive)	> 100 µM (inactive)	> 100 µM (inactive)	> 100 µM (inactive)	> 100 µM (inactive)	> 100 µM (inactive)	–	> 100 µM (inactive)	> 100 µM (inactive)	> 100 µM (inactive)	> 100 µM (inactive)	> 100 µM (inactive)	> 100 µM (inactive)	–	–	–	–
COc1cc(/C=C2\NC(=O)C3Cc4c(OC)c(C)c(OC)c(OC)c4C2N3C)c(OC)c(C)c1OC (centres undefined)	> 100 µM (inactive)	> 100 µM (inactive)	–	> 100 µM (inactive)	> 100 µM (inactive)	44.2 µM (inactive)	–	99.5 µM (inactive)	> 100 µM (inactive)	85.3 µM (inactive)	> 100 µM (inactive)	> 100 µM (inactive)	> 100 µM (inactive)	> 100 µM (inactive)	> 100 µM (inactive)	–	–	–	–	–
O=C(c1ccccc1)C(c1ccccc1)C1(O)C(=O)Nc2ccc(Br)cc21 (centres undefined)	17.7 µM (inactive)	> 100 µM (inactive)	60.1	73.5 µM (inactive)	15.4 µM (inactive)	23.6 µM (inactive)	> 100 µM (inactive)	20.9 µM (inactive)	> 100 µM (inactive)	> 100 µM (inactive)	72.6 µM (inactive)	35.8 µM (inactive)	> 100 µM (inactive)	22.3 µM (inactive)	–	17.9 µM (inactive)	–	–	–	–
Cc1cc(Cl)ccc1NC(=O)C(=O)C(C(=O)c1ccc2ccccc2c1)C1OC(=O)c2ccccc21 (centres undefined)	1.11 µM (active)	10.2 µM (inactive)	18.7	14.3 µM (inactive)	10.1 µM (inactive)	–	6.93 µM (inactive)	7.06 µM (inactive)	18.6 µM (inactive)	1.83 µM (inactive)	4.08 µM (inactive)	15.7 µM (inactive)	> 10 µM (inactive)	16.1 µM (inactive)	13.2 µM (inactive)	3.1 µM (inactive)	–	–	–	–
O=c1[nH]c(=O)n(C2OC(COP(=O)(O)OP(=O)(O)OC3OC(CO)C(O)C(O)C3O)C(O)C2O)cc1F (centres undefined)	0.0929 µM (active)	0.116 µM (active)	0.0384	1.12 µM (active)	0.191 µM (active)	0.0522 µM (active)	< 0.014 µM (active)	0.327 µM (active)	0.908 µM (active)	0.0522 µM (active)	0.0475 µM (active)	0.0809 µM (active)	1.67 µM (inactive)	0.615 µM (active)	0.0314 µM (active)	< 0.01 µM (active)	–	–	–	–
CSc1nc2c(nc(N)n2C2OC(CO)C(O)C(O)C2O)c(=O)[nH]1 (centres undefined)	> 100 µM (inactive)	> 100 µM (inactive)	–	> 100 µM (inactive)	> 100 µM (inactive)	> 100 µM (inactive)	> 100 µM (inactive)	> 100 µM (inactive)	–	> 100 µM (inactive)	> 100 µM (inactive)	> 100 µM (inactive)	> 100 µM (inactive)	> 100 µM (inactive)	> 100 µM (inactive)	–	–	–	–	–
O=C(OCc1ccccc1)n1cccc1	> 100 µM (inactive)	> 100 µM (inactive)	–	> 100 µM (inactive)	> 100 µM (inactive)	76.9 µM (inactive)	> 100 µM (inactive)	> 100 µM (inactive)	> 100 µM (inactive)	> 100 µM (inactive)	> 100 µM (inactive)	> 100 µM (inactive)	> 100 µM (inactive)	> 100 µM (inactive)	> 100 µM (inactive)	54.6 µM (inactive)	–	–	–	–
C/C(=N\NC(=S)NC(CCC(=O)O)C(=O)O)c1ccccn1 (centres undefined)	> 100 µM (inactive)	> 100 µM (inactive)	> 100	> 100 µM (inactive)	> 100 µM (inactive)	> 100 µM (inactive)	> 100 µM (inactive)	> 100 µM (inactive)	> 100 µM (inactive)	> 100 µM (inactive)	> 100 µM (inactive)	> 100 µM (inactive)	> 100 µM (inactive)	> 100 µM (inactive)	> 100 µM (inactive)	> 100 µM (inactive)	–	–	–	–
CCOc1ccc2c(ccc(/C=C/c3cc(C)c4cccnc4c3O)[n+]2C)c1	0.0673 µM (active)	0.746 µM (active)	3.66	0.881 µM (active)	2.99 µM (inactive)	0.158 µM (active)	0.281 µM (active)	0.583 µM (active)	1.24 µM (inactive)	3.71 µM (inactive)	0.736 µM (active)	0.274 µM (active)	0.575 µM (active)	0.933 µM (active)	0.356 µM (active)	0.818 µM (active)	3.62 µM (inactive)	6.82 µM (inactive)	0.157 µM (active)	0.773 µM (active)
CC1(Cc2ccccc2)NC(=S)NC1=O (centres undefined)	–	> 100 µM (inactive)	–	3.03 µM (inactive)	> 100 µM (inactive)	–	> 100 µM (inactive)	> 100 µM (inactive)	> 100 µM (inactive)	> 100 µM (inactive)	> 100 µM (inactive)	> 100 µM (inactive)	> 100 µM (inactive)	> 100 µM (inactive)	> 100 µM (inactive)	–	–	–	–	–
CC(CCC=O)CCOCc1ccccc1 (centres undefined)	> 48.5 µM (inactive)	> 100 µM (inactive)	> 100	> 100 µM (inactive)	> 73.8 µM (inactive)	> 40.7 µM (inactive)	> 100 µM (inactive)	34.8 µM (inactive)	> 89.7 µM (inactive)	> 100 µM (inactive)	> 100 µM (inactive)	> 100 µM (inactive)	> 42 µM (inactive)	36.5 µM (inactive)	49.8 µM (inactive)	53.7 µM (inactive)	> 100 µM (inactive)	> 100 µM (inactive)	56.6 µM (inactive)	> 100 µM (inactive)
CCC12C[N+]3([O-])CCc4c([nH]c5ccccc45)C(C(=O)OC)(c4cc5c(cc4OC)N(C)C4C(O)(C(=O)OC)C(OC(C)=O)C6(CC)C=CCN7CCC54C76)CC(C3)C1O2 (centres undefined)	0.401 µM (active)	2.55 µM (inactive)	4.47	0.594 µM (active)	0.617 µM (active)	0.406 µM (active)	0.424 µM (active)	0.063 µM (active)	3.94 µM (inactive)	0.693 µM (active)	0.675 µM (active)	2.33 µM (inactive)	5.62 µM (inactive)	7.01 µM (inactive)	1.09 µM (active)	0.331 µM (active)	–	–	–	–
CC(=O)O[C@H]1C(=O)O[C@@H]2C[C@H]3C(C)=CC(=O)[C@@H](O)[C@]3(C)[C@H]3[C@@]4(O)OC[C@]32[C@@H]1[C@@H](C)[C@H]4O	0.0328 µM (active)	0.0505 µM (active)	0.0759	0.0329 µM (active)	0.0272 µM (active)	0.022 µM (active)	–	0.0243 µM (active)	0.348 µM (active)	0.0301 µM (active)	0.0432 µM (active)	0.0767 µM (active)	< 0.0234 µM (active)	0.0395 µM (active)	0.0321 µM (active)	0.0286 µM (active)	0.0321 µM (active)	0.0175 µM (active)	0.0475 µM (active)	0.02 µM (active)
O=C1C2=C(c3ccccc31)C(c1ccccc1)N1C(=O)CSC1=N2 (centres undefined)	48.4 µM (inactive)	> 68.1 µM (inactive)	40.3	32.6 µM (inactive)	> 100 µM (inactive)	38.8 µM (inactive)	> 57.1 µM (inactive)	29.4 µM (inactive)	> 85.5 µM (inactive)	25.6 µM (inactive)	58.1 µM (inactive)	> 53.6 µM (inactive)	> 75.3 µM (inactive)	> 86.5 µM (inactive)	37.3 µM (inactive)	56.9 µM (inactive)	52.4 µM (inactive)	35.6 µM (inactive)	44.8 µM (inactive)	34.4 µM (inactive)
CC1=C2C(=CC(C)(C)C2O)C(=O)C(C)(O)C12CC2 (centres undefined)	0.00531 µM (active)	0.00541 µM (active)	0.00393	0.0167 µM (active)	0.0157 µM (active)	0.00253 µM (active)	0.0018 µM (active)	0.00469 µM (active)	0.0128 µM (active)	0.00752 µM (active)	0.00658 µM (active)	0.0189 µM (active)	0.0216 µM (active)	0.014 µM (active)	0.00478 µM (active)	–	–	–	–	–
